From US11504394B2, “Targeted ionophore-based metal delivery” (The Regents of the University of California, priority 2018, dated 2022) come the findings set out here.

Data set [1] can be described thus: Dynamic light scattering, colloidal aggregate formation. In kind it is physicochemical. As for the experimental part: To assess colloidal aggregate formation, Gal-Cu(gtsm) was dissolved in PBS (pH 7.4) to a final concentration of 1 mM. The hydrodynamic diameter (DH) of the formed colloidal particles were determined by dynamic light scattering (DLS) obtained on a Zetasizer® Nano Series (Malvern Instruments, UK) and reported as the number-weighted mean. Samples were filtered with a 0.2 μm syringe filter and measured with a disposable ZEN0040 cuvette. Peaks of varying sizes were found, indicating a polydisperse formation of Gal-Cu(gtsm) aggregates. Measurements were taken in triplicate. Error is reported as the standard deviation from three separate replicates.

The test system of data set [2] is HepG2 cells. Nature of the data set: Cell viability, propidium iodide staining, HepG2. In kind it is cell-based. The conditions noted are these: 500 μM dose, HepG2, three hours. As for the experimental part:
Flow cytometry experiments were performed with BD LSR Fortessa Cell Analyzer in the College of Chemistry at UC Berkeley. Gains were set to include live cells based on viability experiments using propidium iodide, with dead cells via 0.1% saponin treatment as a negative control. The standard PE-A (570 nm longpass, 586/15 nm bandpass) was used. For each biological replicate, three technical replicates of 5,000 (HepG2) or 10,000 cells (HEK 293T) were counted. Flow cytometry data was processed using FlowJo (FlowJo, LLC).
HEK 293T cells were plated in 6-well plates at 60-80% confluency. After ionophore treatment at the given concentration for three hours, cells were washed with DMEM and incubated with 3 μM propidium iodide in PBS for 15 minutes, then rinsed in PBS. HEK 293T cells were mechanically removed via pipetting off the plate with 1 mL PBS and filtered through a 35 μm nylon mesh into 5 mL culture tubes for analysis. HepG2 cells were plated in 12-well plates at 60-80% confluency. […]

The subject of data set [3] is HEK 293T (no ASGPR expression) cells. Nature of the data set: Cellular copper delivery by ICP-MS, HEK 293T. In kind it is cell-based. The conditions noted are these: 4 μM, three hours, serum-free DMEM. As for the experimental part:
Cells were maintained by the UC Berkeley Tissue Culture Facility. HEK 293T and HepG2 cells were maintained as a monolayer in exponential growth at 37° C. in a 5% CO2 atmosphere. HEK 293T cells were maintained in Dulbecco's Modified Eagle Medium (DMEM, Gibco) supplemented with 10% fetal bovine serum (FBS, Hyclone), and glutamax (Gibco). HepG2 cells were maintained in low glucose DMEM with L-glutamine and sodium pyruvate (Gibco). One day before ionophore treatment, cells were passaged and plated in DMEM with glutamax supplemented with 10% FBS on either poly D-lysine-coated (HEK 293T) or gelatin-coated (HepG2) sterile 6-well Corning polystyrene plates. Cells were grown to 60 to 80% confluency prior to ionophore treatment.
Cells were washed twice with serum-free DMEM. 2 mM stock solutions of Cu(gtsm) or Gal-Cu(gtsm) were diluted in serum-free DMEM to a final ionophore concentration of 4 μM. […] Samples (150 μL) were further diluted in 2 mL 2% nitric acid (made freshly from concentrated nitric acid and Milli-Q water) in 15 mL tubes (Sarstedt) and analyzed on a Thermo Fisher iCAP Qc ICP mass spectrometer in kinetic energy discrimination (KED) mode against a standard curve of known copper and phosphorus concentrations (CMS-5, Inorganic Ventures), with Ga (20 μg/L, Inorganic Ventures) as an internal standard. […]

In data set [4] the test system is HepG2 cells. Nature of the data set: Confocal imaging with copper sensing CF4 fluorescent probe. It is filed as cell-based. To be noted: HepG2, 100 μM Gal-Cu(gtsm) or 2 μM Cu(gtsm), 3 hours. The protocol: Confocal fluorescence images were acquired with a Zeiss LSM710 laser-scanning microscope with a 20× objective lens. Excitation at 543 nm for CF4 was carried out with appropriate lasers, and emission was acquired from 550 to 650 nm. HepG2 cells were plated between 50-80% confluency in 8-well glass chamber slides with gelatin coating. Cells were incubated with either vehicle, Cu(gtsm), or Gal-Cu(gtsm) for 3 hours in low glucose DMEM. The media was then aspirated and replaced with CF4 or Ctrl-CF4-S2 (2 μM freshly diluted from a 1 mM stock solution) in DPBS with calcium and magnesium, then incubated at 37° C. for 30 minutes. The buffer was then replaced with fresh DPBS (+Ca, +Mg) for imaging. Image analysis and quantification was performed using ImageJ (National Institutes of Health). Mean fluorescence intensity was analyzed with a minimum threshold of 20 pixels and maximum threshold of 255 pixels.

A further data set relates to liver tissue. Nature of the data set: Liver tissue histology, H&E staining. In kind it is in vivo. As for the experimental part:
FVB-luc+ mice were injected i.p. with vehicle (50 μL 1:1 DMSO:DPBS), Cu(gtsm), or Gal-Cu(gtsm) at a 0.75 mg Cu/kg mouse dose. After six hours, mice were euthanized with CO2 asphyxiation followed by cervical dislocation and liver tissue was extracted. Liver sections were fixed in a 10% formalin in PBS solution and sent to Histowiz Inc. (Brooklyn, N.Y.) for further processing and hematoxylin & eosin staining.

Data set [5] concerns blood urea nitrogen (BUN). Kind of data set: Blood urea nitrogen (BUN) assay on serum. In kind it is in vivo, mice. To be noted: 0.75 mg Cu/kg. As for the experimental part:
Mice were immediately euthanized by cervical dislocation.
Liver lysate (TBARS Assay via TCA Method, Cayman Chemical) and serum (BUN Assay, Invitrogen; ALT Assay, Cayman Chemical) samples were processed according to manufacturer instructions; sample concentration was selected based on initial dilution screening to fall within linear range of the standard curve. All samples were analyzed in triplicate.

Compound `CNC1=N[N+]2=CC=[N+]3N=C(NCCOCCOCCOC4OC(CO)C(O)C(O)C4NC(C)=O)[S][Cu-2]23[S]1` (centres unmarked) [Gal-Cu(gtsm)] had a number-weighted hydrodynamic diameter in data set [1] (1 mM in PBS (pH 7.4), DLS, error = standard deviation) of 4.60±0.69 nm. Further, the “colloid formation in aqueous buffer” value in data set [1] (aqueous buffer) is given as “forms colloids”. Also, the “ionophore toxicity (cell viability)” value in the data set on HepG2 cells [2] is listed as “non-toxic”. Also, in data set [3], the “Cu increase relative to basal levels (^63Cu/^31P)” value is recorded as “does not increase cellular copper beyond basal levels”. Besides, in the data set with HepG2 cells [4], the CF4 fluorescence entry is given as “increased fluorescence”. Further, in the data set on liver tissue (0.75 mg Cu/kg i.p.), the “toxicity as indicated by liver histology and toxicity assays” value is recorded as “non-toxic”. In the data set with liver tissue (6 hours, 0.75 mg Cu/kg mouse), the “H&E liver histology” value is recorded as “largely resemble those of the vehicle-treated control mice”. In addition, the BUN levels entry in data set [5] is “not”.
